Measured values as given in US6492416B1, “4,5-diaryl-3(2H)-furanone derivatives as cyclooxygenase-2 inhibitors” (Pacific Corporation, priority 1999, dated 2002).
Converted amounts (≈) assume the structure as drawn.

How the values were obtained:
[1] = system: male Sprague-Dawley (SD) rats; experiment: Carrageenan-induced foot edema in rats (CFE); assay type: in vivo; conditions: oral dose 3 mg/kg body weight, rat, paw volume 3 hours after Carrageenan
Description: An appropriate amount of a compound of this invention suspended in 1% methylcellulose (MC) solution was administered to male Sprague-Dawley (SD) rats weighing 150˜200 g by oral gavage. The volume of the administered vehicle for a compound of this invention was controlled to be smaller than 10 ml/kg body weight of the animal. One hour later, 0.1 ml of 1% Carrageenan saline solution was directly injected into the right paw of the rats to induce edema in the paw. The paw volumes at 0 hour and at 3 hours after the injection of Carrageenan were measured by using a displacement plethysmometer (Ugo Basile, Italy). The paw volumes were used to calculate % inhibition of CFE by an amount of a compound of this invention according to the following equation.
% Inhibition of CFE=(1−Δtreated/Δcontrol)×100
wherein Δtreated=[paw volume at three hours after the Carrageenan injection−paw volume right after Carrageenan injection] for a drug-administered rat, and Δcontrol=[paw volume at three hours after the Carrageenan injection−paw volume right after Carrageenan injection] for a rat without drug administration.
In order to determine the inhibitory activity of a compound of this invention at a dose, usually 5 to 8 animals were used both for drug-treated group and for control group.

COX-1 = molecular target: T1, COX-1 (Mus musculus, UniProt P22437); experiment: Evaluation of COX-1 activity: PGE2 formation in mouse peritoneal macrophages without aspirin and LPS treatment; assay type: cell-based
T1 sequence (P22437 27-602): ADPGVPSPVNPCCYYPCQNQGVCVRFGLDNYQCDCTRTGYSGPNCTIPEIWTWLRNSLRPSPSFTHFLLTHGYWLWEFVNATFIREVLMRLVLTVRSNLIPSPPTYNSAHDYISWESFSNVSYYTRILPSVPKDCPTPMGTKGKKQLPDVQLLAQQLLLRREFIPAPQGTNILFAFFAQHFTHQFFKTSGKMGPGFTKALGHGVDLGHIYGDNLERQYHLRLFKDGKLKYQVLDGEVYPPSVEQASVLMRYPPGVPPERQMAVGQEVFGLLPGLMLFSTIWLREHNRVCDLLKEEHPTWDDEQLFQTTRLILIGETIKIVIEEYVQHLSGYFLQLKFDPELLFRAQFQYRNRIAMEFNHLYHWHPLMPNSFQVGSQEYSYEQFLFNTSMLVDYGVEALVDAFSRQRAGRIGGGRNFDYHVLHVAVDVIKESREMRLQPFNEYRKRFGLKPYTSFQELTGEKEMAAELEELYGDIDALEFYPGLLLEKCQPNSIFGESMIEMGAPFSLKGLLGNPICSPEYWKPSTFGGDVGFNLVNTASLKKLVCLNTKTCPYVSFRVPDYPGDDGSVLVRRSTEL
Procedure, shortened: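 Peritoneal macrophages from C57BL/6 mice, without aspirin or LPS treatment, were plated at 1×10^6 cells/ml and fixed 2 h at 37 °C. Cells were preincubated 10 min, then given 10 μM arachidonic acid plus compound for 10 min; PGE2 was measured by RIA or EIA. IC50 came from 4–5 concentrations.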

COX-2 = molecular target: T2, COX-2 (Mus musculus, UniProt Q05769); experiment: Evaluation of COX-2 activity: PGE2 formation in aspirin-treated, LPS-stimulated mouse peritoneal macrophages; assay type: cell-based
T2 sequence (Q05769 18-604): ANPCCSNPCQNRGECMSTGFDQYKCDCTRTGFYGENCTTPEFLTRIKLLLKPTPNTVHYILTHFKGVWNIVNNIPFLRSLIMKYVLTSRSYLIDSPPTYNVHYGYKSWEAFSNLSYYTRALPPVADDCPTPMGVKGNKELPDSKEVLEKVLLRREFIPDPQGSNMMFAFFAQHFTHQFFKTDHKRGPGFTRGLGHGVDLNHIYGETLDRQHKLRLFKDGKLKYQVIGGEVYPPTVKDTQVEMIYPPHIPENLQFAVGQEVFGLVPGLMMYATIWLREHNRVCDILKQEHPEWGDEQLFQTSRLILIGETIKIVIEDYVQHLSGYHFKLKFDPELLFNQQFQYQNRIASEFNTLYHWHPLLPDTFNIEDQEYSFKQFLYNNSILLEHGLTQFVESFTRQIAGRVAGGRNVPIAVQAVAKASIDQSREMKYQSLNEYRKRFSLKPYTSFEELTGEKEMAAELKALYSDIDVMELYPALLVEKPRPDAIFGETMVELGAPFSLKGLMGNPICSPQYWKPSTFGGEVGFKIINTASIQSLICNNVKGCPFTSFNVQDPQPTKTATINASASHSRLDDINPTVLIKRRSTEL
Procedure, shortened: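 PGE2 output, quantified by radio- or enzyme-immunoassay, was read after 10 min exposure of cells to compound with 10 μM arachidonic acid. Cells were mouse peritoneal macrophages, COX-1 knocked out with 500 μM aspirin and COX-2 induced by 10 μg/ml LPS over 16 h. IC50 derived from 4–5 concentrations.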

Compound	IC50, μg/ml COX-1 (COX-1) [µg/mL]	melting point [°C]	IC50, μg/ml COX-2 (COX-2) [µg/mL]	IC50 (COX-1; read-out: IC50, μg/ml COX-1 (converted)) [µM]	IC50 (COX-2; read-out: IC50, μg/ml COX-2 (converted)) [µM]	% Inhibition (CFE) [1] [%]
CC(C)c1ccc(C2=C(c3ccc(S(C)(=O)=O)cc3)OC(C)(C)C2=O)cc1 [Example 84]	3 (≈ 7.8 µM)	121 to 123	0.03 (≈ 0.078 µM)			25
CCSc1ccc(C2=C(c3ccc(S(N)(=O)=O)cc3)OC(C)(C)C2=O)cc1 [Example 146]	0.83 (≈ 2.06 µM)	185	0.0014 (≈ 0.00347 µM)			24
CC1(C)OC(c2ccc(S(N)(=O)=O)cc2)=C(c2cc(F)ccc2F)C1=O [Example 157]	5.15 (≈ 13.6 µM)	182 to 183	0.038 (≈ 0.1 µM)			41
C[S+]([O-])c1ccc(C2=C(c3cccc(F)c3)C(=O)C(C)(C)O2)cc1 (stereo not drawn) [Example 176, 2,2-dimethyl-4-(3-fluorophenyl)-5-{4-(methylsulfinyl)phenyl}-3(2H)-furanone]		143 to 144	1 (≈ 2.9 µM)			23
CC1(C)OC(c2ccc(S(N)(=O)=O)cc2)=C(c2ccccc2F)C1=O [Example 155]	1.8 (≈ 4.98 µM)	188 to 189	0.016 (≈ 0.0443 µM)			35
Cn1cc(C2=C(c3ccc(S(N)(=O)=O)cc3)OC(C)(C)C2=O)cn1 [Example 164]	100 (≈ 288 µM)		0.03 (≈ 0.0864 µM)			29
CC1(C)OC(c2ccc(S(N)(=O)=O)cc2)=C(c2cccc(C(F)(F)F)c2)C1=O [Example 23, 5-{4-(Aminosulfonyl)phenyl}-2,2-dimethyl-4-{3-(trifluoromethyl)phenyl}-3(2H)-furanone]						33
C[S+]([O-])c1ccc(C2=C(c3cc(F)cc(F)c3)C(=O)C(C)(C)O2)cc1 (stereo not drawn) [Example 177, 4-(3,5-Difluorophenyl)-2,2-dimethyl-5-{4-(methylsulfinyl)phenyl}-3(2H)-furanone]	30 (≈ 82.8 µM)	133 to 134	5 (≈ 13.8 µM)			37
5-{(aminosulfonyl)-3-fluorophenyl}-4-(3,5-difluorophenyl)-2,2-dimethyl-3(2H)-furanone [Example 312]	100		0.02			31
Cn1cc(C2=C(c3ccc(S(C)(=O)=O)cc3)OC(C)(C)C2=O)cn1 [Example 20, 2,2-Dimethyl-4-{4-(1-N-methylpyrazolyl)}-5-{4-(methylsulfonyl)phenyl)-3(2H)-furanone]		114 to 115				36

Now from value to compound, other results behind:

IC50, μg/ml COX-1 (COX-1) [µg/mL]	melting point [°C]	IC50, μg/ml COX-2 (COX-2) [µg/mL]	IC50 (COX-1; read-out: IC50, μg/ml COX-1 (converted)) [µM]	IC50 (COX-2; read-out: IC50, μg/ml COX-2 (converted)) [µM]	Compound	% Inhibition (CFE) [1] [%]
50 (≈ 114 µM)	133 to 134	0.03 (≈ 0.0683 µM)			CC1(C)OC(c2ccc(S(C)(=O)=O)c(Br)c2)=C(c2cccc(F)c2)C1=O [Example 343]	25
50 (≈ 126 µM)	149 to 150	0.02 (≈ 0.0505 µM)			CC1(C)OC(c2ccc(S(N)(=O)=O)c(Cl)c2)=C(c2cccc(F)c2)C1=O [Example 369]	28
5 (≈ 13.2 µM)	178 to 179	0.03 (≈ 0.0791 µM)			CC1(C)OC(c2ccc(S(N)(=O)=O)c(F)c2)=C(c2cccc(F)c2)C1=O [Example 302]	27
4 (≈ 9.69 µM)	150 to 151	0.009 (≈ 0.0218 µM)			CC1(C)OC(c2ccc(S(C)(=O)=O)c(Cl)c2)=C(c2ccc(F)c(F)c2)C1=O [Example 361]	41
3 (≈ 7.91 µM)	190 to 192	0.03 (≈ 0.0791 µM)			CC1(C)OC(c2ccc(S(N)(=O)=O)c(F)c2)=C(c2ccc(F)cc2)C1=O [Example 303]	30
	94 to 95		12.8	0.0767	CCC1(C)OC(c2ccc(S(C)(=O)=O)cc2)=C(c2cccc(Cl)c2)C1=O (stereo not drawn) [Example 195]	28
10 (≈ 26.4 µM)	160 to 161	0.05 (≈ 0.132 µM)			CC1(C)OC(c2ccc(S(C)(=O)=O)c(F)c2)=C(c2ccc(F)cc2)C1=O [Example 276]	26
3 (≈ 7.55 µM)	199 to 200	0.03 (≈ 0.0755 µM)			CC1(C)OC(c2ccc(S(N)(=O)=O)c(F)c2)=C(c2ccc(F)c(F)c2)C1=O [Example 311]	30
3 (≈ 7.84 µM)	142 to 143	0.03 (≈ 0.0784 µM)			Cc1cccc(C2=C(c3ccc(S(C)(=O)=O)cc3)OC3(CCCC3)C2=O)c1 [Example 255]	31
10 (≈ 25.2 µM)	158 to 159	0.03 (≈ 0.0757 µM)			CC1(C)OC(c2ccc(S(C)(=O)=O)c(F)c2)=C(c2ccc(F)c(F)c2)C1=O [Example 284]	33
30 (≈ 76 µM)	108 to 109	0.05 (≈ 0.127 µM)			CC1(C)OC(c2ccc(S(C)(=O)=O)c(F)c2)=C(c2cccc(Cl)c2)C1=O [Example 278]	27
3 (≈ 7.55 µM)	185 to 187	0.003 (≈ 0.00755 µM)			CC1(C)OC(c2ccc(S(N)(=O)=O)cc2F)=C(c2cc(F)cc(F)c2)C1=O [Example 335]	32
10 (≈ 26.4 µM)	168 to 170	0.003 (≈ 0.00791 µM)			CC1(C)OC(c2ccc(S(N)(=O)=O)cc2F)=C(c2cccc(F)c2)C1=O [Example 333]	25
